Test results: paper PMC6493276, “Quantification of 1D, a novel derivative of curcumin with potential antitumor activity, in rat plasma by liquid chromatography-tandem mass spectrometry: application to a pharmacokinetic study in rats” (Pharmaceutical Biology, 2019)

Key:
[1] = Stability of 1 D in rat plasma under various storage conditions; assay type: in vitro ADME; conditions: for Accuracy / Measured concentration (mean ± SD): n = 5
Description: The stability of 1 D in rat plasma was evaluated in five replicates at three QC levels under various storage conditions. […] Short-term and long-term stability were evaluated by storing plasma samples at room temperature for 6 h and −20 °C for 1 month before sample preparation. Freeze-thaw stability of QC samples was assessed after three freeze-thaw cycles (−20 to 25 °C). Autosampler stability was evaluated by keeping the extracted plasma samples in the autosampler for 24 h before analysis. Samples were considered to be stable if assay values were within the acceptable limits of accuracy (±15%) and precision (15% RSD).

HJ1299 cells = tested on: HJ1299 cells; design: method as in Tong et al. [2016]; conditions: treatment for 48 h, ref Tong et al. [2016]; cited from earlier work
HT29 cells = tested on: HT29 cells; design: method as in Tong et al. [2016]; conditions: treatment for 48 h, ref Tong et al. [2016]; cited from earlier work
HCT116 cells = tested on: HCT116 cells; design: method as in Tong et al. [2016]; conditions: treatment for 48 h, ref Tong et al. [2016]; cited from earlier work
A549 cells = tested on: A549 cells; design: method as in Tong et al. [2016]; conditions: treatment for 48 h, ref Tong et al. [2016]; cited from earlier work
[2] = Pharmacokinetic study in rats after single intravenous administration; assay type: in vivo; conditions: male, Sprague-Dawley, rat, plasma
Description: The applicability of the developed bioanalytical LC-MS/MS method was evaluated by quantitative determination of 1 D in rat plasma after single intravenous administration. All experimental procedures and animal care were performed following approval from the Ethic Committee of Laboratory Animals of the Affiliated Hospital of Qingdao University. Six male Sprague–Dawley rats, weighing 200 ± 15 g, were obtained from Beijing Vital River Experimental Animal Co. Ltd (Beijing, China). The animals were quarantined for 1 week prior to the study and were maintained on a 12 h light/12 h dark cycle at 22 ± 2 °C and at 50 ± 10% relative humidity. The rodents were given a commercial rat chow and water ad libitum. An intravenous dose of 5 mg/kg was selected based on our previous toxicological and pharmacodynamic studies in rats (unpublished data). The administration solution was prepared by dissolving 1 D in PEG400: PG400: DMSO: saline (30: 30: 1: 39, v/v/v/v) to give a concentration of 2 mg/mL. After fasting overnight, rats were given the prepared administration solution at 5 mg/kg via the tail vein. Blood samples (0.2 mL) were collected into heparinized tubes by retro-orbital puncture at 0 (pre-dose), 5, 10, 20, 30, and 45 min, and 1, 1.5, 2, 4, 8, 12, and 24 h after dosing. Plasma was separated by centrifugation at 4500 rpm for 10 min and stored at −20 °C until analysis. The pharmacokinetic parameters including area under the concentration-time curve (AUC), apparent volume of distribution (Vz), elimination half-life (t1/2), and clearance (CLz) were calculated by a non-compartmental analysis method using the DAS 3.0.2 pharmacokinetic programme. As observable parameters, the maximum plasma concentration (Cmax) and the time to reach the maximum concentration (Tmax) were obtained directly.

[3] = extracted rat plasma, spiked 10 ng/mL, autosampler for 24 h
[4] = extracted rat plasma, spiked 100 ng/mL, autosampler for 24 h
[5] = extracted rat plasma, spiked 500 ng/mL, autosampler for 24 h
[6] = rat plasma, spiked 10 ng/mL, 4 weeks at −20 °C
[7] = rat plasma, spiked 10 ng/mL, 6 h at 25 °C
[8] = rat plasma, spiked 10 ng/mL, three freeze-thaw cycles
[9] = rat plasma, spiked 100 ng/mL, 4 weeks at −20 °C
[10] = rat plasma, spiked 100 ng/mL, 6 h at 25 °C
[11] = rat plasma, spiked 100 ng/mL, three freeze-thaw cycles
[12] = rat plasma, spiked 500 ng/mL, 4 weeks at −20 °C
[13] = rat plasma, spiked 500 ng/mL, 6 h at 25 °C
[14] = rat plasma, spiked 500 ng/mL, three freeze-thaw cycles
[15] = single intravenous 5 mg/kg, n = 6

Accuracy [1, 3]: 103.6%
Measured concentration (mean ± SD) [1, 3]: 10.36 ± 0.75 ng/mL
Accuracy [1, 4]: 101.5%
Measured concentration (mean ± SD) [1, 4]: 101.51 ± 6.43 ng/mL
Accuracy [1, 5]: 96.2%
Measured concentration (mean ± SD) [1, 5]: 481.19 ± 42.98 ng/mL
Accuracy [1, 6]: 106.1%
Measured concentration (mean ± SD) [1, 6]: 10.61 ± 0.55 ng/mL
Accuracy [1, 7]: 102.7%
Measured concentration (mean ± SD) [1, 7]: 10.27 ± 0.56 ng/mL
Accuracy [1, 8]: 101.2%
Measured concentration (mean ± SD) [1, 8]: 10.12 ± 0.66 ng/mL
Accuracy [1, 9]: 98.4%
Measured concentration (mean ± SD) [1, 9]: 98.39 ± 7.52 ng/mL
Accuracy [1, 10]: 104.7%
Measured concentration (mean ± SD) [1, 10]: 104.71 ± 5.16 ng/mL
Accuracy [1, 11]: 99.4%
Measured concentration (mean ± SD) [1, 11]: 99.36 ± 6.92 ng/mL
Accuracy [1, 12]: 103.7%
Measured concentration (mean ± SD) [1, 12]: 518.57 ± 43.30 ng/mL
Accuracy [1, 13]: 106.1%
Measured concentration (mean ± SD) [1, 13]: 530.28 ± 34.32 ng/mL
Accuracy [1, 14]: 100.8%
Measured concentration (mean ± SD) [1, 14]: 503.88 ± 33.79 ng/mL
Changes in concentrations after storage (stability in rat plasma) ([1]; room temperature 6 h, −20 °C 1 month, autosampler 24 h, three freeze-thaw cycles): No significant changes
AUC(0-t) ([2]; 5 mg/kg, intravenous administration, non-compartmental (abstract)): 807 ng·h/mL
Cmax [2, 15]: 610 ng/mL
Tmax [2, 15]: 4.8 min
AUC(0-inf) ([2]; single intravenous 5 mg/kg, n = 6, non-compartmental): 853 ng·h/mL
clearance ([2]; single intravenous 5 mg/kg, n = 6, read-out: CLz (clearance) (converted)): 106 mL/min/kg
MRT last ([2]; single intravenous 5 mg/kg, n = 6, read-out: MRT(0−t)): 3.4 h
MRT inf ([2]; single intravenous 5 mg/kg, n = 6, read-out: MRT(0−∞)): 4.7 h
Vd ([2]; single intravenous 5 mg/kg, n = 6, read-out: Vz (apparent volume of distribution)): 46.6 L/kg
half-life ([2]; single intravenous 5 mg/kg, n = 6, read-out: t1/2 (elimination half-life) (converted)): 4.92 h
Structure (SMILES): Br.COc1ccc(/C=C/c2cc(/C=C/c3ccc(OC)cc3)nc(OCCCCSC(=N)N)n2)cc1 [1 D, (E,E)-4-(4,6-bis(4-methoxystyryl)pyrimidin-2-yloxy)butyl carbamimidothioate hydrobromide]
IC50 (HJ1299 cells): 920 nM
IC50 (HT29 cells): 790 nM
IC50 (HCT116 cells): 1000 nM
IC50 (A549 cells): 990 nM
